From article PMC8560763, “Roles of metal ions in the selective inhibition of oncogenic variants of isocitrate dehydrogenase 1” (Communications Biology, 2021)
Several values for one entry are separate records, joined by “and”; a condition that tells them apart may be missing. Identical values can stand only once.

Experiments:
wt IDH1 [1] = target: T1, wt IDH1 (Homo sapiens, UniProt O75874); assay: CPMG-edited 1H NMR ligand binding, wt IDH1; conditions: for binding to wt IDH1 / displacement of D-isocitrate from wt IDH1: without metal ions; for binding to wt IDH1: DSF and NMR; for weakening of D-isocitrate binding to wt IDH1: with Mg^2+ or Ca^2+ (10 mM); for displacement of D-isocitrate from wt IDH1: inhibitor 50 µM, D-isocitrate 50 µM, wt IDH1 6.25 µM
T1 construct: made in house; host or cells: Escherichia coli BL21(DE3) pLyS
T1 sequence (O75874 2-414): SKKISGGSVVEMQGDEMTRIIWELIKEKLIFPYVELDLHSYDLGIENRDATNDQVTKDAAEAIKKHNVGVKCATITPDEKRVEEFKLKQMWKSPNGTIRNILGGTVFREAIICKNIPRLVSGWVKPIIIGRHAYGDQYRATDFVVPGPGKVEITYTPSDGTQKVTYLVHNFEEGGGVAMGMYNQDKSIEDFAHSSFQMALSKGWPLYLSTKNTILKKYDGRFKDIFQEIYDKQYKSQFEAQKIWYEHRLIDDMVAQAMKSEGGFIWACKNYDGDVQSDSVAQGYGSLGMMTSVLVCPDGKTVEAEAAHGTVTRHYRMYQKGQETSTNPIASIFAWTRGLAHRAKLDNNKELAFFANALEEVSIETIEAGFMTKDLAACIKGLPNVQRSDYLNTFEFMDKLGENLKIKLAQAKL
Method: Additional solvent presaturation was applied for 2 s. The assay mixture contains 160 µL of a 50 µM solution of the compound of interest ± 10 mM metal chloride salts in 50 mM Tris-D11-HCl in 90% H2O/10% D2O at pH 7.5. […] Data were processed with the TopSpin 3.1 software.

wt IDH1 [2] = target: T1, wt IDH1; assay: Absorbance assay: kinetics of reductive reaction (2OG to isocitrate) by wt IDH1; format: biochemical
Method: (§1) All experiments were performed in (at least) triplicate.
(§2) KM values were determined by varying concentrations of the substrate/cofactor under investigation while maintaining the concentrations of other components using standard conditions. […] Graphs were fitted using GraphPad Prism to obtain kinetic parameters.

wt IDH1 [3] = target: T1, wt IDH1; assay: Absorbance assay: effect of metal ions on catalysis and inhibition of wt IDH1; format: biochemical; conditions: for inhibition by metal ion: wt IDH1, metal ions 10 mM in the presence of 10 mM Mg^2+
Method: Inhibition assays of wt or R132H IDH1 with metal ions were conducted with a 12 min pre-incubation of metal ions (25 µL, final concentration 10 mM) and enzyme (25 µL) before the addition of substrate (25 µL) and cofactor (25 µL). […] The difference in absorbance, ΔA340, in the linear range of the reaction profile was converted to % residual activity with the DMSO control being the 100% residual activity reference.

wt IDH1 [4] = target: T1, wt IDH1; assay: Differential scanning fluorimetry (DSF) thermal shift, wt IDH1; format: binding; conditions: 50 mM Tris-HCl, pH 7.5; for thermal stabilisation (shift in Tm): wt IDH1, divalent metal ions (5 mM); for thermal stabilisation by cosubstrates: wt IDH1, 0.125—4 mM
Method: Thermal shift experiments were carried out using Sypro Orange dye and a CFX96 Touch^TM Real-Time PCR Detection System (Bio-Rad)[69]. […] The standard assay buffer contains 50 mM Tris-HCl at pH 7.5. Various concentrations of substrates were mixed with IDH1 for thermal stabilisation studies. […] Bio-Rad CFX Manager was used to determine the melting temperature, Tm.

wt IDH1 [5] = target: T1, wt IDH1; assay: Absorbance assay (NADPH, 340 nm): kinetics of oxidative reaction (isocitrate to 2OG) by wt IDH1; format: biochemical
Method: as §1, §2

wt IDH1 [6] = target: T1, wt IDH1; assay: Non-denaturing protein MS, wt IDH1; format: binding; conditions: wt IDH1 dimer with two NADPHs bound
Method: Non-denaturing mass spectra were obtained using a quadrupole time-of-flight mass spectrometer (Synapt HD MS, Waters, Wilmslow, Manchester, UK)[71],[72]. […] Protein concentrations were measured using a Nanodrop spectrometer (Thermo Scientific™ NanoDrop™ One). […] The solution was then sprayed through a nozzle in a Nanomate chip at a spray voltage of 1.8–2.0 kV (spray backing gas pressure 0.8–1.0 psi, inlet pressure 3.8 mbar). […] For promoting collision-induced dissociation of the substrate from its complex with IDH1, a higher cone voltage (200 V) was used. The rest of the voltages and pressures in the mass spectrometer were adjusted for the best resolution and minimum fragmentation. Data collection and analysis were carried out using the Waters MassLynx software. Mass spectra were calibrated externally using the CsI solution to produce CsI cluster ions.

wt IDH1 [7] = target: T1, wt IDH1; assay: 1H NMR reaction monitoring, wt IDH1; format: biochemical; conditions: 1H NMR (700 MHz), NADP+, 10 mM MgCl2
Method: Reaction monitoring employed the same spectrometer with a 5-mm inverse TCI cryoprobe using 5 mm tubes (Norell). Data were recorded with a relaxation delay of 2 s and 32 scans, employing a pulse sequence with water suppression (^1H excitation sculpting suppression with perfect echo using a 2 ms Sinc selective inversion pulse).

[8] = wt IDH1, reductive reaction (2OG to isocitrate) with Mg^2+, 100 mM NaHCO3
[9] = wt IDH1, oxidative reaction with Mn^2+ (10 mM MnCl2)

O=C(O)CCC(O)C(=O)O (stereo not shown) [2HG, 2-hydroxyglutarate]
binding to wt IDH1 (wt IDH1 [1]): not observed to bind

O=C(O)CCC(=O)C(=O)O [2OG, 2-oxoglutarate]
Velocity (wt IDH1 [2]; Fig. S2e, [2OG] 312.5 μM): 0.04369 µM/s and 0.04159 µM/s and 0.04334 µM/s | Velocity (wt IDH1 [2]; Fig. S2e, [2OG] 625 μM): 0.08493 µM/s and 0.08598 µM/s and 0.07405 µM/s | Velocity (wt IDH1 [2]; Fig. S2e, [2OG] 2500 μM): 0.1446 µM/s and 0.1407 µM/s and 0.1265 µM/s | Velocity (wt IDH1 [2]; Fig. S2e, [2OG] 5000 μM): 0.1734 µM/s and 0.1435 µM/s and 0.1563 µM/s | Velocity (wt IDH1 [2]; Fig. S2e, [2OG] 10000 μM): 0.2051 µM/s and 0.2078 µM/s and 0.1434 µM/s | Km (wt IDH1 [2]; [8]): 1100 µM | Vmax (wt IDH1 [2]; [8]): 200 ± 16 nM/s | binding to wt IDH1 (wt IDH1 [1]): bind weakly

[Cl-].[Li+] [Li^+]
inhibition by metal ion (wt IDH1 [3]): no effect

[Na+] [Na^+]
inhibition by metal ion (wt IDH1 [3]): no effect

[Cl][Mn][Cl] [MnCl2]
thermal stabilisation (shift in Tm) (wt IDH1 [4]): 2.9 °C | Velocity (wt IDH1 [5]; Fig. S3c, [MnCl2] 1.16415 μM): 0.08423 µM/s and 0.08186 µM/s and 0.1169 µM/s | Velocity (wt IDH1 [5]; Fig. S3c, [MnCl2] 1.86265 μM): 0.2269 µM/s and 0.1979 µM/s and 0.204 µM/s | Velocity (wt IDH1 [5]; Fig. S3c, [MnCl2] 4.76837 μM): 0.3206 µM/s and 0.2772 µM/s and 0.338 µM/s | Velocity (wt IDH1 [5]; Fig. S3c, [MnCl2] 7.62939 μM): 0.3506 µM/s and 0.2861 µM/s and 0.3632 µM/s | Velocity (wt IDH1 [5]; Fig. S3c, [MnCl2] 12.207 μM): 0.3785 µM/s and 0.3498 µM/s | Velocity (wt IDH1 [5]; Fig. S3c, [MnCl2] 19.5312 μM): 0.3561 µM/s and 0.3846 µM/s | Velocity (wt IDH1 [5]; Fig. S3c, [MnCl2] 31.25 μM): 0.3922 µM/s and 0.3424 µM/s and 0.3875 µM/s | Velocity (wt IDH1 [5]; Fig. S3c, [MnCl2] 50 μM): 0.4096 µM/s and 0.3893 µM/s and 0.3938 µM/s | kcat (wt IDH1 [5]; wt IDH1, oxidative reaction with Mn^2+): 81 ± 11 s⁻¹ | Km (wt IDH1 [5]; [9]): 2 ± 0.3 µM | Vmax (wt IDH1 [5]; [9]): 416 ± 13 nM/s | effect of metal ion on catalysis (wt IDH1 [3]; wt IDH1, metal ions 10 mM): promoted

[Ca+2].[Cl-].[Cl-] [Ca^2+, CaCl2]
thermal stabilisation (shift in Tm) (wt IDH1 [4]): 3.2 °C | inhibition by metal ion (wt IDH1 [3]): inhibiting

[Cl-].[Cl-].[Co+2] [Co^2+, CoCl2]
inhibition by metal ion (wt IDH1 [3]): inhibitory

O=C(O)CC(C(=O)O)C(O)C(=O)O (racemic) [DL-isocitrate]
Km (wt IDH1 [5]; wt IDH1, oxidative reaction with Mg^2+ (10 mM MgCl2)): 38 ± 6 µM | Km (wt IDH1 [5]; [9]): 35 ± 4 µM

[Cl-].[K+] [K^+]
inhibition by metal ion (wt IDH1 [3]): no effect

[Cl-].[Cs+] [Cs^+]
inhibition by metal ion (wt IDH1 [3]): no effect

COc1c(C)cc(NC(=O)c2nn(Cc3ccc(F)cc3)c3c2CN(C(=O)c2ccc[nH]2)C[C@]3(C)C(N)=O)cc1C [GSK864]
binding stoichiometry (wt IDH1 [6]): two inhibitors per IDH1 dimer | weakening of D-isocitrate binding to wt IDH1 (wt IDH1 [1]): not | displacement of D-isocitrate from wt IDH1 (wt IDH1 [1]): partially displaced

[Cl-].[Cl-].[Zn+2] [Zn^2+, ZnCl2]
inhibition by metal ion (wt IDH1 [3]): inhibitory

O=C(O)CNC(=O)C(=O)O [NOG, N-oxalylglycine]
binding to wt IDH1 (wt IDH1 [1]): bind weakly

NC(=O)C1=CN([C@@H]2O[C@H](COP(=O)(O)OP(=O)(O)OC[C@H]3O[C@@H](n4cnc5c(N)ncnc54)[C@H](OP(=O)(O)O)[C@@H]3O)[C@@H](O)[C@H]2O)C=CC1 [NADPH]
thermal stabilisation by cosubstrates (wt IDH1 [4]): stabilise | Velocity (wt IDH1 [2]; Fig. S2f, [NADPH] 31.25 μM): 0.06247 µM/s and 0.06738 µM/s and 0.04685 µM/s | Velocity (wt IDH1 [2]; Fig. S2f, [NADPH] 62.5 μM): 0.08774 µM/s and 0.07774 µM/s and 0.04633 µM/s | Velocity (wt IDH1 [2]; Fig. S2f, [NADPH] 250 μM): 0.1446 µM/s and 0.1585 µM/s and 0.1383 µM/s | Velocity (wt IDH1 [2]; Fig. S2f, [NADPH] 500 μM): 0.1648 µM/s and 0.2053 µM/s

[Cl][Ni][Cl] [Ni^2+, NiCl2]
inhibition by metal ion (wt IDH1 [3]): inhibitory

N#Cc1ccnc(N2C(=O)CC[C@H]2C(=O)N(c2cncc(F)c2)[C@H](C(=O)NC2CC(F)(F)C2)c2ccccc2Cl)c1 [AG-120, Ivosidenib]
binding stoichiometry (wt IDH1 [6]): one inhibitor per IDH1 dimer | weakening of D-isocitrate binding to wt IDH1 (wt IDH1 [1]): not | displacement of D-isocitrate from wt IDH1 (wt IDH1 [1]): partially displaced

[Cl][Cd][Cl] [Cd^2+, CdCl2]
inhibition by metal ion (wt IDH1 [3]): inhibitory

O=C(O)C[C@H](C(=O)O)[C@@H](O)C(=O)O [L-isocitrate]
conversion by wt IDH1 (wt IDH1 [7]): neither a substrate nor an inhibitor

[Cl-].[Cl-].[Sr+2] [Sr^2+, SrCl2]
inhibition by metal ion (wt IDH1 [3]): inhibiting

[Ba+2].[Cl-].[Cl-] [Ba^2+, BaCl2]
inhibition by metal ion (wt IDH1 [3]): inhibiting

NC(=O)c1ccc[n+](C2OC(COP(=O)(O)OP(=O)([O-])OCC3OC(n4cnc5c(N)ncnc54)C(OP(=O)(O)O)C3O)C(O)C2O)c1 (stereo not shown) [NADP^+]
thermal stabilisation by cosubstrates (wt IDH1 [4]): stabilise | Velocity (wt IDH1 [5]; Fig. S2b, [NADP+] 9.375 μM): 0.05756 µM/s and 0.05177 µM/s and 0.06247 µM/s | Velocity (wt IDH1 [5]; Fig. S2b, [NADP+] 18.75 μM): 0.1158 µM/s and 0.09809 µM/s and 0.09195 µM/s | Velocity (wt IDH1 [5]; Fig. S2b, [NADP+] 37.5 μM): 0.1572 µM/s and 0.1441 µM/s and 0.152 µM/s | Velocity (wt IDH1 [5]; Fig. S2b, [NADP+] 75 μM): 0.1869 µM/s and 0.1658 µM/s and 0.2058 µM/s | Velocity (wt IDH1 [5]; Fig. S2b, [NADP+] 150 μM): 0.2085 µM/s and 0.1992 µM/s and 0.219 µM/s | Velocity (wt IDH1 [5]; Fig. S2b, [NADP+] 300 μM): 0.2511 µM/s and 0.2272 µM/s and 0.239 µM/s | Velocity (wt IDH1 [5]; Fig. S2b, [NADP+] 600 μM): 0.245 µM/s and 0.2229 µM/s and 0.192 µM/s | Velocity (wt IDH1 [5]; Fig. S2b, [NADP+] 1200 μM): 0.2522 µM/s and 0.2318 µM/s and 0.2402 µM/s | Velocity (wt IDH1 [5]; Fig. S2b, [NADP+] 2400 μM): 0.2325 µM/s and 0.2464 µM/s and 0.2378 µM/s | Velocity (wt IDH1 [5]; Fig. S3b, MnCl2 as metal, [NADP+] 2.34375 μM): 0.01474 µM/s and 0.01079 µM/s and 0.008423 µM/s | Velocity (wt IDH1 [5]; Fig. S3b, MnCl2 as metal, [NADP+] 4.6875 μM): 0.04185 µM/s and 0.03843 µM/s and 0.02737 µM/s | Velocity (wt IDH1 [5]; Fig. S3b, MnCl2 as metal, [NADP+] 9.375 μM): 0.08765 µM/s and 0.07107 µM/s and 0.0637 µM/s | Velocity (wt IDH1 [5]; Fig. S3b, MnCl2 as metal, [NADP+] 18.75 μM): 0.1629 µM/s and 0.1316 µM/s and 0.1234 µM/s | Velocity (wt IDH1 [5]; Fig. S3b, MnCl2 as metal, [NADP+] 37.5 μM): 0.2419 µM/s and 0.1971 µM/s and 0.1732 µM/s | Velocity (wt IDH1 [5]; Fig. S3b, MnCl2 as metal, [NADP+] 75 μM): 0.3032 µM/s and 0.278 µM/s and 0.2851 µM/s | Velocity (wt IDH1 [5]; Fig. S3b, MnCl2 as metal, [NADP+] 150 μM): 0.3353 µM/s and 0.3245 µM/s and 0.3419 µM/s | Velocity (wt IDH1 [5]; Fig. S3b, MnCl2 as metal, [NADP+] 300 μM): 0.3651 µM/s
